Source: patent US4093715A, “5-Iodo-5'-amino-2',5'-dideoxycytidine and the pharmaceutically acceptable salts thereof” (priority 1977, dated 1978)

Assays:
[1] = tested on: herpes simplex virus strain HSV-1 (prototype); experiment: Inhibition of herpes simplex virus replication (titre reduction by plaque assay) in infected Vero cells; assay type: cell-based, herpes simplex virus type 1
Procedure: The compounds of this invention manifest a high order to inhibition with various herpes simplex viruses. For example, when tested against strain HSV-1 (prototype) at a concentration of 400 μM the average log reduction in titre was 1.4.
(§1) Standard procedures were used to maintain the virus and the Vero cells. This included growth and titration by plaque assay as well as the replications of the virus in the presence of the test compounds. Cells were maintained and infected in Dulbecco's medium with 10% fetal calf serum.
For testing, the cells were infected with virus at a ratio of approximately 10 plaque forming units per cell. The viral inoculum was drained after one hour adsorption at 37° C. An appropriate volume of medium containing the compound for testing was added. After 36-48 hours at 37° C, the infected cells were frozen until ready for titration.

Vero cells = experiment: Cytotoxicity; assay type: cell-based
From the text: as §1

mice = experiment: Acute toxicity in mice; assay type: in vivo; settings: for lethality, acute toxicity: mice
Procedure: Acute toxicity of AIC in mice indicates no lethality at 200 mg/kg of body weight. However, at a level as high as 400 mg/kg the compound is lethal to mice.

[2] = tested on: experimental herpes simplex keratitis; experiment: Treatment of experimental herpes simplex keratitis in rabbits; assay type: in vivo; settings: topical drops 4 mg/ml at 4 hour intervals for 72 hours starting 24 hours after infection, graded daily for 11 days
Procedure: One advantage of AIC has been established by the treatment of rabbits. In this study, experimental herpes simplex keratitis was established bilaterally in 16 rabbits. These were divided into 2 matched groups of 8. Each group was treated in a double blind fashion with topical drops at 4 hour intervals for 72 hours starting 24 hours after infection. The solutions administered were:
2. AIC, 4 mg/ml Each eye was examined daily for 11 days and graded by two ophthalmologists.

[3] = cited from earlier work
newborn rats = settings: systemic administration; cited from earlier work
pregnant rabbits = settings: topically to the eye, doses similar to those used clinically in humans; cited from earlier work

SMILES	log reduction at 400 µM ([1]; Human alphaherpesvirus 1, HSV-1 (prototype), 400 μM, infected Vero cells, ~10 pfu per cell, 36-48 hours at 37° C)	cytotoxicity (Vero cells; at treatment levels as high as 1600 μM)	lethality, acute toxicity (mice; 200 mg/kg of body weight)	lethality, acute toxicity (mice; 400 mg/kg)	therapeutic index (in words) (mice; from acute toxicity in mice coupled with activity)	therapeutic effectiveness in herpes simplex keratitis [2]	antiviral activity (in words) ([1]; at relatively low levels)	cytotoxicity (Vero cells; at a concentration of 50 μM)	undesirable side effects ([3]; ocular use in herpes simplex keratitis)	cellular toxicity ([3]; therapy of herpes simplex keratitis)	teratogenicity (newborn rats)	teratogenicity (pregnant rabbits)
NC[C@H]1O[C@@H](n2cc(I)c(N)nc2=O)C[C@@H]1O [AIC, 5-Iodo-5'-amino-2',5'-dideoxycytidine]	1.4	No cytotoxicity is evident	no lethality	lethal	good therapeutic index	effective therapeutically	–	–	–	–	–	–
O=c1[nH]c(=O)n([C@H]2C[C@H](O)[C@@H](CO)O2)cc1I [idoxuridine, 5-iodo-deoxy-uridine]	–	–	–	–	–	–	high order of activity	almost totally cytotoxic	follicular and papillary conjunctivitis, and epithelial punctate keratopathy	significant cellular toxicity	teratogenicity	teratogenicity
